Columns and labels:
soybean = experiment: Test B pre/postemergence soybean; format: in vivo, Glycine max
Procedure, shortened: (§1)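 Herbicidal effect was estimated by eye on a ten-point control scale after plants spent twelve to sixteen days in a greenhouse following soil or foliar treatment. Foliar sprays targeted plants at one to four leaves; all doses were formulated in a non-phytotoxic solvent with surfactant.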

smallflower flatsedge = experiment: Test B flood test smallflower flatsedge; format: in vivo, Cyperus difformis
Procedure, shortened: (§2)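 Flood test on plants grown to the 2-leaf stage; treated plants kept in greenhouse twelve to sixteen days, then visually rated against controls on a 0 (no effect) to 10 (complete control) scale.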

giant foxtail = experiment: Test B pre/postemergence giant foxtail; format: in vivo, Setaria faberii
Procedure, shortened: as §1

velvetleaf = experiment: Test B pre/postemergence velvetleaf; format: in vivo, Abutilon theophrasti
Procedure, shortened: as §1

pigweed = experiment: Test B pre/postemergence pigweed; format: in vivo, Amaranthus retroflexus
Procedure, shortened: as §1

corn = experiment: Test B pre/postemergence corn; format: in vivo, Zea mays
Procedure, shortened: as §1

sugar beet = experiment: Test B pre/postemergence sugar beet; format: in vivo, Beta vulgaris
Procedure, shortened: as §1

rape = experiment: Test B pre/postemergence rape; format: in vivo, Brassica napus
Procedure, shortened: as §1

crabgrass = experiment: Test B pre/postemergence crabgrass; format: in vivo, Digitaria sanguinalis
Procedure, shortened: as §1

wheat = experiment: Test B pre/postemergence wheat; format: in vivo, Triticum aestivum
Procedure, shortened: as §1

cocklebur = experiment: Test B pre/postemergence cocklebur; format: in vivo, Xanthium strumarium
Procedure, shortened: as §1

rice = experiment: Test B flood test rice; format: in vivo, Oryza sativa
Procedure, shortened: as §2

purple nutsedge = experiment: Test B pre/postemergence purple nutsedge; format: in vivo, Cyperus rotundus
Procedure, shortened: as §1

wild oat = experiment: Test B pre/postemergence wild oat; format: in vivo, Avena fatua
Procedure, shortened: as §1

duck salad = experiment: Test B flood test duck salad; format: in vivo, Heteranthera limosa
Procedure, shortened: as §2

morningglory = experiment: Test B pre/postemergence morningglory; format: in vivo, Ipomoea hederacea
Procedure, shortened: as §1

[1] = Postemergence, Rate 250 g/ha, scale 0 to 10, 0 is no effect, 10 is complete control
[2] = Postemergence, Rate 500 g/ha, scale of 0 to 10 where 0 is no effect and 10 is complete control
[3] = Preemergence, Rate 62 g/ha, scale 0 to 10 (0 no effect, 10 complete control)
[4] = Preemergence, Rate 125 g/ha, scale of 0 to 10 where 0 is no effect and 10 is complete control
[5] = Preemergence, Rate 250 g/ha, scale 0 to 10, 0 is no effect, 10 is complete control
[6] = Preemergence, Rate 500 g/ha, scale 0 to 10, 0 is no effect, 10 is complete control
[7] = Rate 62 g/ha, Postemergence, scale of 0 to 10 where 0 is no effect and 10 is complete control
[8] = Rate 62 g/ha, flood test species, Pre-emergence, visual evaluation after twelve to sixteen days
[9] = Rate 125 g/ha, under heading Pre-emergence, flood test species, visual evaluation after twelve to sixteen days
[10] = Rate 250 g/ha, Pre-emergence, flood-test species, scale 0 to 10, 0 is no effect, 10 is complete control
[11] = Rate 500 g/ha, Pre-emergence, flood test species, scale 0 to 10 (0 no effect, 10 complete control)
[12] = Postemergence, Rate 125 g/ha, scale 0 to 10, 0 is no effect, 10 is complete control

SMILES: CC1CC1Cn1c(=O)on(C(=O)N(c2ccc(F)cc2)C(C)C)c1=O (stereo not drawn) [Compound 402]
- Plant response rating, Soybean (soybean; [1]): 6
- Soybean plant response rating (soybean; [2]): 8
- Plant response rating, Soybean (soybean; [3]): 0
- Plant response rating, Soybean (soybean; [4]): 0
- Soybean plant response rating (soybean; [5]): 0
- Soybean plant response rating (soybean; [6]): 1
- Soybean plant response rating (soybean; [7]): 4
- Plant response rating, S. Flatsedge (0 to 10 scale, 0 is no effect, 10 is complete control) (smallflower flatsedge; [8]): 0
- S. Flatsedge plant response rating (0 to 10 scale, 0 is no effect, 10 is complete control) (smallflower flatsedge; [9]): 0
- S. Flatsedge plant response rating (smallflower flatsedge; [10]): 0
- S. Flatsedge plant response rating (smallflower flatsedge; [11]): 2
- Plant response rating, Giant foxtail (giant foxtail; [12]): 8
- Plant response rating, Giant foxtail (giant foxtail; [1]): 9
- Giant foxtail plant response rating (giant foxtail; [2]): 9
- Plant response rating, Giant foxtail (giant foxtail; [3]): 10
- Plant response rating, Giant foxtail (giant foxtail; [4]): 10
- Giant foxtail plant response rating (giant foxtail; [5]): 10
- Giant foxtail plant response rating (giant foxtail; [6]): 10
- Giant foxtail plant response rating (giant foxtail; [7]): 8
- Plant response rating, Velvetleaf (velvetleaf; [1]): 4
- Velvetleaf plant response rating (velvetleaf; [2]): 4
- Plant response rating, Velvetleaf (velvetleaf; [3]): 0
- Plant response rating, Velvetleaf (velvetleaf; [4]): 0
- Velvetleaf plant response rating (velvetleaf; [5]): 3
- Velvetleaf plant response rating (velvetleaf; [6]): 8
- Velvetleaf plant response rating (velvetleaf; [7]): 0
- Plant response rating, Redroot pigweed (pigweed; [1]): 5
- Redroot pigweed plant response rating (pigweed; [2]): 7
- Plant response rating, Redroot pigweed (pigweed; [3]): 0
- Plant response rating, Redroot pigweed (pigweed; [4]): 2
- Redroot pigweed plant response rating (pigweed; [5]): 4
- Redroot pigweed plant response rating (pigweed; [6]): 10
- Redroot pigweed plant response rating (pigweed; [7]): 2
- Plant response rating, Corn (corn; [12]): 0
- Plant response rating, Corn (corn; [1]): 0
- Corn plant response rating (corn; [2]): 0
- Plant response rating, Corn (corn; [3]): 0
- Plant response rating, Corn (corn; [4]): 0
- Corn plant response rating (corn; [5]): 3
- Corn plant response rating (corn; [6]): 9
- Corn plant response rating (corn; [7]): 0
- Plant response rating, Sugarbeets (sugar beet; [1]): 2
- Sugarbeets plant response rating (sugar beet; [2]): 2
- Plant response rating, Sugarbeets (sugar beet; [3]): 0
- Plant response rating, Sugarbeets (sugar beet; [4]): 0
- Sugarbeets plant response rating (sugar beet; [5]): 3
- Sugarbeets plant response rating (sugar beet; [6]): 8
- Sugarbeets plant response rating (sugar beet; [7]): 1
- Plant response rating, Rape (rape; [1]): 8
- Rape plant response rating (rape; [2]): 9
- Plant response rating, Rape (rape; [3]): 0
- Plant response rating, Rape (rape; [4]): 1
- Rape plant response rating (rape; [5]): 5
- Rape plant response rating (rape; [6]): 8
- Rape plant response rating (rape; [7]): 1
- Plant response rating, Crabgrass (crabgrass; [12]): 3
- Plant response rating, Crabgrass (crabgrass; [1]): 5
- Crabgrass plant response rating (crabgrass; [2]): 9
- Plant response rating, Crabgrass (crabgrass; [3]): 9
- Plant response rating, Crabgrass (crabgrass; [4]): 9
- Crabgrass plant response rating (crabgrass; [5]): 10
- Crabgrass plant response rating (crabgrass; [6]): 10
- Crabgrass plant response rating (crabgrass; [7]): 3
- Wheat plant response rating (wheat; [2]): 0
- Plant response rating, Wheat (wheat; [3]): 0
- Plant response rating, Wheat (wheat; [4]): 0
- Wheat plant response rating (wheat; [5]): 3
- Wheat plant response rating (wheat; [6]): 6
- Wheat plant response rating (wheat; [7]): 0
- Plant response rating, Cocklebur (cocklebur; [12]): 1
- Plant response rating, Cocklebur (cocklebur; [1]): 4
- Cocklebur plant response rating (cocklebur; [2]): 5
- Plant response rating, Cocklebur (cocklebur; [3]): 0
- Plant response rating, Cocklebur (cocklebur; [4]): 0
- Cocklebur plant response rating (cocklebur; [5]): 0
- Cocklebur plant response rating (cocklebur; [6]): 0
- Cocklebur plant response rating (cocklebur; [7]): 0
- Plant response rating, Rice (0 to 10 scale, 0 is no effect, 10 is complete control) (rice; [8]): 1
- Rice plant response rating (0 to 10 scale, 0 is no effect, 10 is complete control) (rice; [9]): 1
- Rice plant response rating (rice; [10]): 2
- Rice plant response rating (rice; [11]): 2
- Plant response rating, Nutsedge (purple nutsedge; [1]): 0
- Nutsedge plant response rating (purple nutsedge; [2]): 0
- Plant response rating, Nutsedge (purple nutsedge; [3]): 0
- Plant response rating, Nutsedge (purple nutsedge; [4]): 0
- Nutsedge plant response rating (purple nutsedge; [5]): 0
- Nutsedge plant response rating (purple nutsedge; [6]): 0
- Nutsedge plant response rating (purple nutsedge; [7]): 0
- Wild oats plant response rating (wild oat; [2]): 3
- Plant response rating, Wild oats (wild oat; [3]): 1
- Plant response rating, Wild oats (wild oat; [4]): 4
- Wild oats plant response rating (wild oat; [5]): 8
- Wild oats plant response rating (wild oat; [6]): 10
- Wild oats plant response rating (wild oat; [7]): 0
- Plant response rating, Ducksalad (0 to 10 scale, 0 is no effect, 10 is complete control) (duck salad; [8]): 0
- Ducksalad plant response rating (0 to 10 scale, 0 is no effect, 10 is complete control) (duck salad; [9]): 0
- Ducksalad plant response rating (duck salad; [10]): 0
- Ducksalad plant response rating (duck salad; [11]): 0
- Plant response rating, Morningglory (morningglory; [1]): 8
- Morningglory plant response rating (morningglory; [2]): 10
- Plant response rating, Morningglory (morningglory; [3]): 0
- Plant response rating, Morningglory (morningglory; [4]): 0
- Morningglory plant response rating (morningglory; [5]): 2
- Morningglory plant response rating (morningglory; [6]): 2
- Morningglory plant response rating (morningglory; [7]): 3
